melting point [°C]	SMILES
135	Cc1ccc(N2CCC(CCOc3ccc(-c4nc(C(C)C)no4)cc3)CC2)nn1
118 to 120	COc1cc2cc(OCCCN3CCCCC3)ccc2c2ccc(OCCCN3CCCCC3)cc12
155	CC1(C)CC(N(C=O)CCCCCCN(C=O)C2CC(C)(C)NC(C)(C)C2)CC(C)(C)N1
89 to 91	COC(=O)CC(C)C(=O)c1ccc(O)cc1 (configuration not stated)
56	CC1(C)C(Br)C(=O)C1CC(Cl)(Cl)Cl (configuration not stated)
175 to 177	O=Nc1c(-c2ccccc2)nc2sccn12
96 to 98	O=C(O)[C@@H](CC(=O)N1CCN(CC(F)(F)F)CC1)Cc1ccccc1
29.5 to 31.5	COc1cccc(C=O)c1OS(=O)(=O)C(F)(F)F
125 to 128	CCOC(=O)c1cnn(-c2cccc(Cl)n2)c1S(N)(=O)=O
133 to 136	CC1CN(C(=O)OC(C)(C)C)CCC1(O)c1cc(C(F)(F)F)cc2ccoc12 (configuration not stated)
90 to 91	Cc1ccc(S(=O)(=O)OC[C@H]2COc3ccc(Cl)cc3O2)cc1
216 to 218	CCOC(=O)c1ccc(NC(=O)C=CC=C(c2ccc(Cl)cc2)c2ccc(Cl)cc2)cc1
48 to 48.5	C/C=C/OC(=O)/C=C/N(C)C
220 to 222	Cc1ccc(-c2cccc(/C=C/C(=O)Nc3ccc(-c4ccccn4)cc3)c2)cc1
205	COc1ccc2cc(C(C)C(O)(P(=O)(O)O)P(=O)(O)O)ccc2c1 (configuration not stated)
228	O=c1cc[nH]n1-c1c(Cl)cc(C(F)(F)F)cc1Cl
139 to 141	COC(=O)CCC(Oc1cccc2c1cc(C)n2Cc1ccccc1)C(=O)OC (configuration not stated)
199 to 208	CC(=O)c1ccccc1CN1C(=O)C(NC(=O)Nc2cccc(-c3nnn[nH]3)c2)N=C(C2CCCCC2)c2cccc(C)c21 (configuration not stated)
188 to 190	CSc1nc(-c2ccc(C#N)cc2)cn1-c1ccc(Br)cc1
47 to 48	CCCn1nnn(-c2cc(C)c(Cl)cc2Cl)c1=O
136 to 138	C=CC(c1ccccc1)c1c(C)c(OC(C)=O)c(C)c(C)c1O (configuration not stated)
108 to 111	COC(=O)C1Cc2c([nH]c3ccccc23)C(c2cc(OC)ccc2OC)N1C(=O)CCl (configuration not stated)
138 to 139	O=C1COCCN1c1ccc(NC[C@H](O)CCl)cc1
135 to 138	COC(=O)c1cc(N2CCOCC2)nc(Cl)n1

melting point [°C]	SMILES
84	C1=Cc2cc3ccccc3cc2CS1
155	COc1cc(-c2ccco2)c2oc(-c3ccc(OC)c(F)c3)nc2c1
145 to 146	NS(=O)(=O)C1Cc2ccccc2CC1=O (configuration not stated)
75 to 90	COCCCn1ccc2c1CC(c1ccccc1Cl)C1C(=O)NC(=O)C21 (configuration not stated)
78 to 81	O=C(CCCl)N(c1ccccc1)C1CCCc2ccccc21 (configuration not stated)
168 to 170	Nc1nc(NCc2ccc(OCc3ccccc3)cc2)nc2nc(-c3ccco3)nn12
123 to 129	O=c1c2c(Cl)cc(Cl)cc2n(Cc2ccccc2)c(=O)n1Cc1cccc(Cl)c1
138 to 140	COc1ccc(C(=O)C2CCN(C(C)=O)CC2)c(O)c1
188 to 191	Nc1nc2ccc(Cc3cccs3)cc2s1
32 to 33	CC(C)=CC(=O)c1sccc1O
164 to 166	Nc1cccc(CCC(=O)Nc2ccc(Nc3ccccc3)cc2)c1
100	CCC1OC(=O)C(C)C(OC2CC(C)(OC)C(O)C(C)O2)C(C)C(OC2OC(C)CC(N(C)C)C2O)C(C)(OC)CC(C)C(=O)C(C)C(O)C1(C)O (configuration not stated)
138	Cn1ccc2cc(/C=C/C3=CCN(Cc4ccccc4)CC3)ccc21
138 to 140	Nc1ccsc1C(=O)NC/C=C\COc1cc(CN2CCCCC2)ccn1
125 to 127	Cc1cc(-c2cc(C(F)(F)F)nn2-c2ccc(S(N)(=O)=O)c(F)c2)ccc1-c1cscn1
189 to 191	CCCn1c(=O)c([N+](=O)[O-])c2n(c1=O)CCS2
219 to 221	CN1CCN(C2=Nc3ccc(F)cc3Nc3sc4cc(Br)ccc4c32)CC1
123 to 125	CC(NC(=O)OC(C)(C)C)C1CCN(c2c(F)cc3c(=O)[nH]c(=O)n4c3c2CCC4C)C1 (configuration not stated)
144 to 146	O=C(O)CCCCC(=O)NCc1ccc2c(c1)C(=O)N(C1CCC(=O)NC1=O)C2=O (configuration not stated)
231	NS(=O)(=O)c1cccc(NC(=O)c2cnn3c(C(F)F)cc(-c4ccc(OC(F)(F)F)cc4)nc23)c1
188 to 189	COc1ccc(N2C(=O)[C@H](NC(=O)OC(C)(C)C)[C@@H]2CON2C(=O)c3ccccc3C2=O)cc1 (relative stereo)
209 to 211	Oc1nn(-c2ccccc2)c2ccccc12
150 to 184	CCNC(=O)c1ccccc1Nc1nc(Nc2ccc3c(c2)CCN(CCOC)CC3)ncc1Cl
196 to 198	O=C(O)C1=Cc2cc(Cl)c(Cl)cc2OC1C(F)(F)F (configuration not stated)

melting point [°C]	SMILES
175 to 176	N#Cc1cnc2cc(/C=C/CN3CCOCC3)ccc2c1Nc1ccc(Cl)cc1Cl
147 to 148	CCc1cc(OCc2ccc(-c3ccccc3-c3nnn(C(c4ccccc4)(c4ccccc4)c4ccccc4)n3)cc2)c2c(n1)CCCCC2
240	CC(C)(C)c1cc(Cl)c2c(c1)-c1ccccc1P(=O)(O)O2
237 to 239	Nc1nc(N)c2ncn(C3COC(CO)O3)c2n1 (single isomer, unassigned; (-))
118	O=c1oc(-c2ccc(OCCCC(F)(F)F)cc2)nn1CCO
169 to 170	Cc1ccc(C2=N[C@H](c3ccccc3)CO2)cc1C#CCN(O)C(N)=O
174 to 176	CCc1nc(/C=C/c2cn(-c3ccccc3C)nc2O)cs1
132 to 134	Clc1ccc(COc2ccc(Cl)cc2C(c2ccccc2)n2ccnc2)c(Cl)c1 (configuration not stated)
124 to 125	COc1cc(OC)nc(Sc2c([N+](=O)[O-])c(C)nn2C)n1
155 to 157	CC(C)(C)OC(=O)Nc1ccc(N2CCNCC2)cc1
244 to 246	c1cc(-c2ccc(-n3c4ccccc4c4ccccc43)cc2)cc(-n2c3ccccc3c3ccccc32)c1
228 to 229	COc1ccc(F)c(OC)c1-c1ccc(C[C@H](NC(=O)c2c(Cl)cccc2Cl)C(=O)O)cc1
80 to 81	CCOC(=O)c1oc(-c2ccc(Cl)cc2)nc1C
133 to 136	CC(=O)CCOc1c(-c2ccc(S(C)(=O)=O)cc2)cnn(-c2ccc(F)cc2)c1=O
> 300	O=C(O)c1cc2c(c(C(=O)O)c1)NCCS2
124	CCCCCC(=O)NC[C@H]1CNC(=O)O1
113 to 115	COC(=O)C1Cc2c([nH]c3ccccc23)C(c2ccccc2Br)N1C(=O)CCl (configuration not stated)
136 to 138	CC1=C2C(=C(c3ccccc3Cl)N=CC(=O)N2C)NO1
235 to 237	COc1cc(/C=C/C(=O)O)ccc1OCc1sc(-c2ccc(C(F)(F)F)cc2)nc1C
145 to 147	COc1cc2c(c3c1OC(C)(C)C3)C(c1cccc(NC(=O)C3CCC(=O)N3)c1)=NC(C)(C)C2 (configuration not stated)
> 225	N#Cc1[nH]c(-c2ccc(Cl)cc2)c(C#N)c1Br
94 to 95	OCCCc1cnoc1-c1ccc(-c2ccccc2)cc1
176 to 177	Cc1cc(-c2ccc(C#N)cc2)sc1C(=O)N[C@H](C)[C@](O)(Cn1cncn1)c1ccc(F)cc1F
225 to 226	CCC(=O)N1CCC(NC(=O)Nc2ccc(Cl)cc2)CC1

melting point [°C]	SMILES
125 to 126	CCC(C)c1cccc(C(C)CC)c1C(=O)O (configuration not stated)
165 to 166	COc1cc(COc2nn(-c3ccccc3)cc2/C=C/c2nnc(C)[nH]2)ccc1OCc1nc(-c2ccco2)oc1C
139 to 140	CCC1(C)OC1(C#N)C(=O)O (configuration not stated)
146 to 148	C1=CCC2=c3cnc4ccccc4c3=NC2=C1
43 to 45	CCc1nsc(C(=O)O)c1C(=O)OC
124 to 125	S=C(NCC1CCCCC1)NCC1CCCCC1
156 to 159	O=C1CCCc2ncccc2N1
106	COc1cc2c(cc1OC)CN(CC(O)COc1ccc(N)cc1)CC2 (configuration not stated)
84	Nc1cc(-n2nnn(CCCF)c2=O)c(F)cc1Cl
368 to 371	CC1(c2ccccc2)Nc2ccc3c(c2N1)C(=O)c1ccccc1C3=O (configuration not stated)
220 to 221	COc1ccc(C(=O)OC(=C2C(=O)N(C(N)=O)c3cc(Cl)c(F)cc32)c2cccs2)cc1
174 to 176	Cn1nnnc1Cc1ccc2c(c1)c(C1=CCN(CCN3CCNC3=O)CC1)cn2-c1ccc(F)cc1
247 to 250	COc1cccc(C(=O)c2sc(NC(=O)c3ccncc3)nc2-c2ccco2)n1
75 to 77	CC1(C)COc2ccc(OS(C)(=O)=O)cc21
157 to 160	CNCc1ccc(Cc2nc3ccccc3[nH]2)cc1
127	CCN(CC)CCSC1=C(C#N)C(c2ccccc2)(c2cccc(C(F)(F)F)c2)C(=O)N1 (configuration not stated)
168	CC(=O)Nc1ccc(-c2cc(C(=O)c3ccc(C)cc3)sc2N2CCOCC2)cc1
74	Cc1cc(-c2cccc3c2C(=O)OC(C)(C)O3)on1
92 to 94	CC(=O)CN1C(=O)c2ccccc2C1=O
233 to 235	O=C(Nc1nc(-c2ccco2)c(C(=O)C2CCOCC2)s1)c1ccc(Cl)nc1
106 to 108	CCN(c1ccc(C(=O)c2ccccc2)cc1N)C1CCCCC1
136	CC(=O)c1ccc(N2CCN(c3cccc(C)c3)CC2)nn1
232 to 233	Cc1cc(I)ccc1Nc1c(-c2nnc(S)o2)ccc(F)c1F
155 to 158	Cc1cc(C)c(Nc2nc(C)ccc2S(=O)(=O)c2ccc(OCc3cccc(C#N)c3)cc2)c(C)c1

SMILES	melting point [°C]
CN(C)C1CCc2[nH]c3cccc(OCc4ccccc4)c3c2C1 (configuration not stated)	207 to 209
CC[Si](CC)(CC)OC1CC2=CCC3C4CCC(=O)C4(C)CCC3C2(C)C(O[Si](CC)(CC)CC)C1 (configuration not stated)	99 to 100
OC1C2CCN(CC2)C1C#Cc1ccc(-c2cccnc2)cc1 (configuration not stated)	189 to 190
NC1Cc2cccc3[nH]c(=O)n(c23)C1 (configuration not stated)	> 300
COC(=O)Cc1cc2c(s1)NC(=S)C(C)N=C2c1ccccc1Cl (configuration not stated)	196 to 197
Clc1ccc2[nH]c(-c3ccccc3)c(CCN3CCCCC3)c2c1	153 to 154

Source: a melting point compilation (Tetko et al.; mined from patent text by program, amines drawn as free bases though some values may be those of a salt)
